Reference: patent US10065931B2, “Quinazolin crotyl compound dimaleate crystals and preparation methods and uses thereof” (HANGZHOU HUADONG MEDICINE GROUP BIOPHARMACEUTICAL CO., LTD., priority 2015, dated 2018)
In brackets after ≈: the same amount, converted by molar mass. Where two headings read alike, the source gives them in different places.

Assays:
Type in all cases: physicochemical
[1] = Storage stability test, chemical content by HPLC; details: for Initial content: before storage; for Chemical stability, 25° C./60% R.H. One week / Chemical stability, 40° C./75% R.H. One week: chemical content as % of initial content; for Chemical content after storage (in words): one week, 40° C./75% R.H.
[2] = Second set of competition of stabilities between crystal form K and crystal form F (solid mixture stored 10 days, XRPD)
From the text: Then two samples were placed in different environments for 10 days and were subjected to XRPD test respectively.

[3] = Solubility in water, FaSSIF, FeSSIF and SGF
Procedure: Wherein FaSSIF and FeSSIF were prepared according to the method described in the literature: Study of a Standardized Taurocholate-Lecithin Powder for Preparing the Biorelevant Media FeSSIF and FaSSIF (Kloefer, B., van Hoogevest, P., Moloney, R., Kuentz, M., Leigh, M. L., & Dressman, J. (2010). Dissolution Technologies, August 17(3), 6-14. SGF was prepared according to the method described in the literature Albendazole Generics-A Comparative In Vitro Study (Galia E., Horton, J and Dressman J. (1999) Pharmaceutical Research, 16 (12), […]). The test results are summarized in Table 6.

[4] = Storage stability test, physical stability by XRPD; details: for XRPD pattern after storage (physical stability): one week of storage, 25° C./60% R.H. and 40° C./75% R.H.
Procedure: In the following examples, the XRPD of the crystal form was determined using a PANalytical Empyrean X-ray powder diffraction analyzer, the parameters are summarized in Table 1.

[5] = Competition of stability between crystal form K and crystal form G in water (XRPD); details: 12 hours stirring, room temperature
Procedure: After 12 hours of stirring under room temperature, the solid was separated by centrifugation and was subjected to XRPD test, the results are shown in FIG. 20.

[6] = First set of competition of stabilities between crystal form K and crystal form F (suspension, different water activities, XRPD); details: room temperature
Procedure: After 12 hours of stirring under room temperature, the solid was isolated by centrifugation and the XRPD thereof was tested.

Row | Initial content [1] [%] | Chemical stability, 25° C./60% R.H. One week [1] [%] | Chemical stability, 40° C./75% R.H. One week [1] [%] | Chemical content after storage (in words) [1] | Solubility ([3]; FaSSIF, pH 6.5) [mg/mL] | Solubility ([3]; FeSSIF, pH 5.0) [mg/mL] | Solubility ([3]; SGF, pH 1.8) [mg/mL] | Solubility ([3]; Water, pH 7.4) [mg/mL] | XRPD pattern after storage (physical stability) [4] | Structure (SMILES) | further results
1 | 100.0 | 99.8 | 99.6 | stable | – | – | – | – | – | CN(C)C/C=C/C(=O)Nc1cc2c(Nc3ccc(F)c(Cl)c3)ncnc2cc1OC(F)F [Crystal form G] | Crystal form after competition with crystal form K in saturated water solution [5]: converted to crystal form K
2 | 100.0 | 99.9 | 99.8 | stable | 8.36 (≈ 17.9 mM) | 1.24 (≈ 2.66 mM) | >9.95 | >10.02 | basically the same | CN(C)C/C=C/C(=O)Nc1cc2c(Nc3ccc(F)c(Cl)c3)ncnc2cc1OC(F)F [Crystal form K] | Water activity at which crystal form K is thermodynamically more stable than crystal form F [6]: greater than or equal to 0.15; Crystal form after competition with crystal form F ([6]; water activity 0.00, IPA, 12 hours stirring): Crystal form F; Crystal form after competition with crystal form F ([6]; water activity 0.15, IPA:H2O 99:1, 12 hours stirring): Crystal form K; Crystal form after competition with crystal form F ([6]; water activity 0.39, IPA:H2O 24:1, 12 hours stirring): Crystal form K; Crystal form after competition with crystal form F ([6]; water activity 0.60, ACN:H2O 19:1, 12 hours stirring): Crystal form K; Crystal form after competition with crystal form F ([6]; water activity 0.80, ACN:H2O 9:1, 12 hours stirring): Crystal form K; XRPD pattern after storage (physical and chemical stability) ([4]; 6 months of storage, 40° C./75% R.H.): basically the same
3 | 100.0 | 99.8 | 94.8 | – | 0.03 (≈ 0.0644 mM) | 0.10 (≈ 0.215 mM) | – | <0.0025 | changed significantly | CN(C)C/C=C/C(=O)Nc1cc2c(Nc3ccc(F)c(Cl)c3)ncnc2cc1OC(F)F [Free base] | Chemical stability, 40° C./75% R.H. One week ([1]; listed as free base): 94.8%; Water solubility (in words) [3]: poor; Solubility ([3]; SGF, pH 1.8, simulated gastric fluid, thermodynamic from solid, SGF, pH 1.8, read-out: Solubility): 8.37 mg/mL (≈ 18 mM); Long-term storage stability (in words) [4]: poor

The next lines start with the compound.

Row | Structure (SMILES) | Initial content [1] [%] | Chemical stability, 25° C./60% R.H. One week [1] [%] | Chemical stability, 40° C./75% R.H. One week [1] [%] | Chemical content after storage (in words) [1] | Solubility ([3]; FaSSIF, pH 6.5) [mg/mL] | Solubility ([3]; FeSSIF, pH 5.0) [mg/mL] | Solubility ([3]; SGF, pH 1.8) [mg/mL] | Solubility ([3]; Water, pH 7.4) [mg/mL] | XRPD pattern after storage (physical stability) [4] | further results
4 | CN(C)C/C=C/C(=O)Nc1cc2c(Nc3ccc(F)c(Cl)c3)ncnc2cc1OC(F)F [Crystal form E] | 100.0 | 99.8 | 99.5 | – | – | – | – | – | – | –
5 | CN(C)C/C=C/C(=O)Nc1cc2c(Nc3ccc(F)c(Cl)c3)ncnc2cc1OC(F)F [Crystal form F] | 100.0 | 99.8 | 99.7 | stable | 2.44 (≈ 5.24 mM) | 0.57 (≈ 1.22 mM) | >10.65 | >9.81 | basically the same | Crystal form after storage of crystal form F mixed with about 1% crystal form K ([2]; 25° C., 60% R.H.): form F; Crystal form after storage of crystal form F mixed with about 1% crystal form K ([2]; 25° C., 60% R.H., listed as crystal form F): did not change; Crystal form after storage of crystal form F mixed with about 1% crystal form K ([2]; 40° C., 75% R.H.): form K; Crystal form after storage of crystal form F mixed with about 1% crystal form K ([2]; 40° C., 75% R.H., listed as crystal form F): converted to the crystal form K
